According to ChEMBL document CHEMBL1255210, “Discovery of pyrrolopyridazines as novel DGAT1 inhibitors” (Bioorg Med Chem Lett, 2010):

Assays:
[1] = target: T1, Diacylglycerol O-acyltransferase 1 (Homo sapiens, UniProt O75907); assay: Inhibition of human liver flag-tagged DGAT1 expressed in baculovirus infected insect cells after 2 hrs
T1 sequence (O75907 whole entry): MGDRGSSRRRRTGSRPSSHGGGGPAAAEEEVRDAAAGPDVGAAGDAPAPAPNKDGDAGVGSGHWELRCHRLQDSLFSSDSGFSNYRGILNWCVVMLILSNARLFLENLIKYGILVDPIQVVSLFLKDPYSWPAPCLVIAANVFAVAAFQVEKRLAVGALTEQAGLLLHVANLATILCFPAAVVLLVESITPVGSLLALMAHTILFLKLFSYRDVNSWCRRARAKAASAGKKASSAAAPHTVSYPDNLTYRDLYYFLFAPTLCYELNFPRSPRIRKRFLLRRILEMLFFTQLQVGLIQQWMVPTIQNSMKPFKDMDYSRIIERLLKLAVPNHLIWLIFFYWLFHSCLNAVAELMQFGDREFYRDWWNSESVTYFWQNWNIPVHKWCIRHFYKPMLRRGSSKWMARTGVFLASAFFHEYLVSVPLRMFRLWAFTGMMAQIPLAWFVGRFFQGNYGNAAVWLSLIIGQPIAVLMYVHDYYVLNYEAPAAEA

[2] = target: T2, Sterol O-acyltransferase 1 (Homo sapiens, UniProt P35610); assay: Inhibition of human full-length flag-tagged ACAT1 expressed in baculovirus infected insect cells after 10 mins
T2 sequence (P35610 whole entry): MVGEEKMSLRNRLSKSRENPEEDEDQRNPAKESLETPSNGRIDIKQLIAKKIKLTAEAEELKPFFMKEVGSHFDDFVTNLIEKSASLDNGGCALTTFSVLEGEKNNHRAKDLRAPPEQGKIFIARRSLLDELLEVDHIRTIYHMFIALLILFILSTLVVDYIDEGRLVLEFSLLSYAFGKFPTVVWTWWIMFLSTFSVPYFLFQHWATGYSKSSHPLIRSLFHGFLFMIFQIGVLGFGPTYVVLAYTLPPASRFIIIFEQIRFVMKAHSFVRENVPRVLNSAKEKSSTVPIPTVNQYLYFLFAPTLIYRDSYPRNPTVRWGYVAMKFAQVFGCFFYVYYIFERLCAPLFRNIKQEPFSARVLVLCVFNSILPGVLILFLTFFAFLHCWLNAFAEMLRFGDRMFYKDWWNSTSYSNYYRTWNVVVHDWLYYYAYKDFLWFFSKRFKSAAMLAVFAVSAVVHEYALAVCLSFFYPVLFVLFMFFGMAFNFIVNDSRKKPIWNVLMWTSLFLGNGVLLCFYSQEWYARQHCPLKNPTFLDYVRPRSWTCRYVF

[3] = target: T1, Diacylglycerol O-acyltransferase 1; assay: Inhibition of DGAT1 in human Caco-2 cells after 30 mins; format: cell-based

IC50 [1] [nM] | IC50 [2] [nM] | IC50 [3] [nM] | Compound
110 | < 1000 | – | CCCc1c(-c2nc(CC)no2)c(C(=O)OCC)c2c(-c3ccccc3)cc(N3CCOCC3)nn12
> 3000 | – | – | CCCc1c(C(=O)OCC)c(C(=O)OCC)c2c(C(C)(C)C)cc(N3CCOCC3)nn12
180 | 1590 | 200 | CCCc1c(-c2nc(-c3ccccc3)no2)c(C(=O)OCC)c2c(-c3ccccc3)cc(N3CCOCC3)nn12
110 | < 1000 | – | CCCCCc1noc(-c2c(C(=O)OCC)c3c(-c4ccccc4)cc(N4CCOCC4)nn3c2CCC)n1
250 | < 300 | – | CCOC(=O)c1c(C(=O)OCC)c2c(-c3ccccc3)cc(N3CCOCC3)nn2c1-c1ccc(-c2ccccc2)cc1
520 | 2590 | – | CCOC(=O)c1c(C(=O)OCC)c2c(-c3ccccc3)cc(N3CCOCC3)nn2c1C
> 3000 | – | – | CCCc1cc(N2CCOCC2)nn2c(CCC)c(C(=O)OCC)c(C(=O)OCC)c12
120 | 1300 | – | CCCc1c(C(=O)OCC)c(C(=O)OCC)c2c(-c3ccccc3)cc(N3CCCC3)nn12
> 3000 | – | – | CCOC(=O)c1cn2nc(N3CCOCC3)cc(-c3ccccc3)c2c1C(=O)OCC
620 | 3250 | – | CCOC(=O)c1c(C(=O)OCC)c2c(-c3ccccc3)cc(N3CCOCC3)nn2c1C1CC1
180 | 1050 | 260 | CCCc1c(-c2nc(CCO)no2)c(C(=O)OCC)c2c(-c3ccccc3)cc(N3CCOCC3)nn12
> 3000 | – | – | CCCc1c(C(=O)OCC)c(C(=O)OCC)c2c(C3CCCC3)cc(N3CCOCC3)nn12
240 | 8750 | – | CCOC(=O)c1c(C(=O)OCC)c2c(-c3ccccc3)cc(N3CCOCC3)nn2c1COC
120 | 1300 | – | CCCc1c(C(=O)OCC)c(C(=O)OCC)c2c(-c3ccccc3)cc(N3CCOCC3)nn12
65 | 260 | – | CCCc1noc(-c2c(C(=O)OCC)c3c(-c4ccccc4)cc(N4CCOCC4)nn3c2CCC)n1
270 | 2560 | – | CCOC(=O)c1c(C(=O)OCC)c2c(-c3ccccc3)cc(N3CCOCC3)nn2c1CCCOC

IC50 [1] [nM] | IC50 [2] [nM] | IC50 [3] [nM] | Compound
> 1000 | – | – | CCOC(=O)c1c(C(=O)OCC)c2c(-c3ccccc3)cc(N3CCOCC3)nn2c1CCCN(C)C
160 | < 300 | – | CCCCc1c(C(=O)OCC)c(C(=O)OCC)c2c(-c3ccccc3)cc(N3CCOCC3)nn12
> 1000 | – | – | CCOC(=O)c1c(C(=O)OCC)c2c(-c3ccccc3)cc(N3CCOCC3)nn2c1CCCO
240 | 2170 | – | CCOC(=O)c1c(C(=O)OCC)c2c(-c3ccccc3)cc(N3CCOCC3)nn2c1CC
> 3000 | – | – | CCCc1c(C(=O)OCC)c(C(=O)OCC)c2c(-c3ccccc3)cc(N3C[C@@H](C)O[C@@H](C)C3)nn12
570 | 1490 | – | CCCc1c(C(=O)OCC)c(C(=O)OCC)c2c(-c3ccccc3F)cc(N3CCOCC3)nn12
570 | 1290 | – | CCOC(=O)c1c(C(=O)OCC)c2c(-c3ccccc3)cc(N3CCOCC3)nn2c1-c1ccc(O)cc1
> 3000 | – | – | CCCc1c(C(=O)OCC)c(C(=O)OCC)c2c(C3CCC3)cc(N3CCOCC3)nn12
75 | 1400 | – | C=CCc1c(C(=O)OCC)c(C(=O)OCC)c2c(-c3ccccc3)cc(N3CCOCC3)nn12
73 | < 1000 | 69 | CCCCc1noc(-c2c(C(=O)OCC)c3c(-c4ccccc4)cc(N4CCOCC4)nn3c2CCC)n1
> 3000 | – | – | CCCc1c(C(=O)OCC)c(C(=O)OCC)c2c(C3CCCCC3)cc(N3CCOCC3)nn12
60 | < 100 | – | CCOC(=O)c1c(C(=O)OCC)c2c(-c3ccccc3)cc(N3CCOCC3)nn2c1-c1ccc(OCc2ccccc2)cc1
630 | 1050 | – | CCOC(=O)c1c(C(=O)OCC)c2c(-c3ccccc3)cc(N3CCOCC3)nn2c1-c1ccc(N)cc1
57 | < 1000 | 51 | CCCc1c(-c2nc(C(C)C)no2)c(C(=O)OCC)c2c(-c3ccccc3)cc(N3CCOCC3)nn12
1360 | 1490 | – | CCCc1c(C(=O)OCC)c(C(=O)OCC)c2c(-c3ccccc3)cc(N3CCC3)nn12
